Test results from patent publication US5773423A (priority 1994, dated 1998).
Where two headings read alike, the source gives them in different places.

Columns and labels:
[1] = molecular target: T1, A1 receptors from rat brain membranes (Rattus norvegicus, UniProt P25099); assay: biochemical; format: binding; settings: for inhibition at 100 µM: read-out: A1 percent displacement
T1 construct: Rat cerebral cortical and striatal membranes were prepared; from tissue; host or cells: rat brain (cerebral cortical) membranes
T1 sequence (P25099 1-326): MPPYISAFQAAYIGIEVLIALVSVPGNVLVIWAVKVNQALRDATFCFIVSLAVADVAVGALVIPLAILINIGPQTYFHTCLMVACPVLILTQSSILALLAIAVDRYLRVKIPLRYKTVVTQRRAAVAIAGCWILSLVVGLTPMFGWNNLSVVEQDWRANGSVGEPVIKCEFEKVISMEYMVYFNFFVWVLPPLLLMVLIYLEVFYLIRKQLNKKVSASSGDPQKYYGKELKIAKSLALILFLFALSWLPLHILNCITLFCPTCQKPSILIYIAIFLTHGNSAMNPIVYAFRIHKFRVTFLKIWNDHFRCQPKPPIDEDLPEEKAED

[2] = molecular target: T2, A2 receptors from rat striatal membranes (Rattus norvegicus, UniProt P30543); assay: Radioligand binding at A2 (A2a) receptors, displacement of [3H]CGS 21680 (or [3H]NECA with 50 nM CPA) from rat striatal membranes
T2 construct: Rat cerebral cortical and striatal membranes were prepared; from tissue; host or cells: rat striatal membranes

[3] = rat brain membranes, displacement of [3H]PIA (or [3H]CHA), read-out: A1 affinity Ki
[4] = rat striatal membranes, displacement of [3H]CGS 21680 (or [3H]NECA + 50 nM CPA), read-out: A2 affinity Ki
[5] = at 100 μM, read-out: A2 percent displacement
[6] = read-out: A2 percent displacement
[7] = Table 4, [3H]PIA, rat brain membranes, read-out: Ki (A1)
[8] = read-out: percent displacement of radioligand at A2
[9] = Table 4, [3H]CGS 21680, rat striatal membranes, read-out: Ki (A2)

T2 sequence (P30543 whole entry): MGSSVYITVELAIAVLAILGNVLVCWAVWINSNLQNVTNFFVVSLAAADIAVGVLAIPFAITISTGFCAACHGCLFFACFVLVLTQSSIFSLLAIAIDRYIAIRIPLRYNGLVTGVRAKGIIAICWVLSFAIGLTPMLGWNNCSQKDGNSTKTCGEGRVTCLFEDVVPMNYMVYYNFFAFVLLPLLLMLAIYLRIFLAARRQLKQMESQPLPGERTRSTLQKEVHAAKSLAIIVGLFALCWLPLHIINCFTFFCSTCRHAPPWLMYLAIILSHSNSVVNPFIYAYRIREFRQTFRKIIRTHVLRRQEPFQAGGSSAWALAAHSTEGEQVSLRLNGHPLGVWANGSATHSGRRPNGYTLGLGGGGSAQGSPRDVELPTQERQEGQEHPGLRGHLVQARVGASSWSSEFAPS

SMILES | Ki [1, 3] [µM] | Ki [2, 4] [µM] | inhibition at 100 µM ([1]; at 100 μM) [%] | inhibition at 100 µM [2, 6] [%] | also measured
CCNC(=O)[C@H]1O[C@@H](n2cnc3c(NCc4cccc(I)c4)ncnc32)[C@H](O)[C@@H]1O [Compound 60, N^6-(3-iodobenzyl)-NECA] | 0.0077 ± 0.0009 | 0.0072 ± 0.0006 |  |  | 
CCNC(=O)[C@H]1O[C@@H](n2cnc3c(NCc4ccccc4[N+](=O)[O-])ncnc32)[C@H](O)[C@@H]1O [Compound 61, N^6-(2-nitrobenzyl)adenosine-5'-N-ethyluronamide] | 0.031 ± 0.004 | 0.024 ± 0.003 |  |  | 
CCNC(=O)[C@H]1O[C@@H](n2cnc3c(NCc4cccc([N+](=O)[O-])c4)ncnc32)[C@H](O)[C@@H]1O [Compound 62, N^6-(3-nitrobenzyl)-NECA] | 0.078 ± 0.01 | 0.035 ± 0.007 |  |  | 
CCNC(=O)[C@H]1O[C@@H](n2cnc3c(NCc4cccc(C)c4)ncnc32)[C@H](O)[C@@H]1O [Compound 64, N^6-(3-methylbenzyl)-NECA] | 0.0365 ± 0.0012 | 0.0177 ± 0.0018 |  |  | 
CCNC(=O)[C@H]1O[C@@H](n2cnc3c(NCc4ccccc4OC)ncnc32)[C@H](O)[C@@H]1O [Compound 65, N^6-(2-methoxybenzyl)-NECA] | 0.052 ± 0.005 | 0.021 ± 0.003 |  |  | 
CCNC(=O)[C@H]1O[C@@H](n2cnc3c(NCc4cccc(OC)c4)ncnc32)[C@H](O)[C@@H]1O [Compound 66, N^6-(3-methoxybenzyl)-NECA] | 0.069 ± 0.008 | 0.038 ± 0.006 |  |  | 
CCNC(=O)[C@H]1O[C@@H](n2cnc3c(NCc4ccc(OC)cc4)ncnc32)[C@H](O)[C@@H]1O [Compound 67, N^6-(4-methoxybenzyl)adenosine-5'-N-ethyluronamide] | 0.209 ± 0.03 | 0.609 ± 0.034 |  |  | 
Nc1ncnc2c1ncn2[C@H]1C[C@H](O)[C@@H](CO)O1 [Compound 70, 2'-deoxyadenosine, reference compound] |  |  | 30.9 ± 8 |  | inhibition at 100 µM [2, 5]: 38.9 ± 2.9%
CO[C@@H]1[C@H](O)[C@@H](CO)O[C@H]1n1cnc2c(N)ncnc21 [Compound 71, 2'-O-methyladenosine, reference compound] |  |  | 29.4 ± 7.5 |  | inhibition at 100 µM [2, 5]: 49 ± 5%
Nc1ncnc2c1ncn2[C@@H]1O[C@H](CO)C[C@H]1O [Compound 72, 3'-deoxyadenosine, reference compound] |  |  | 5.8 ± 2.8 |  | inhibition at 100 µM [2, 5]: 26.3 ± 3.4%
C[C@H]1O[C@@H](n2cnc3c(N)ncnc32)[C@H](O)[C@@H]1O [Compound 73, 5'-deoxyadenosine, reference compound] | 0.269 ± 0.135 | 0.596 ± 0.054 |  |  | 
CC(C)CSC[C@H]1O[C@@H](n2cnc3c(N)ncnc32)[C@H](O)[C@@H]1O [Compound 76, 5'-deoxy-5'-isobutylthio adenosine, reference compound] | 1.14 | 6.89 |  |  | 
Nc1ncnc2c1ncn2[C@@H]1O[C@H](COP(=O)(O)O)[C@@H](O)[C@H]1O [Compound 78, adenosine-5'-monophosphate, reference compound] |  |  |  | 57.5 ± 4 | Ki [1]: 47.5 ± 6.5 µM
Nc1ncnc2c1ncn2[C@]1(CO)O[C@H](CO)[C@@H](O)[C@H]1O [Compound 80, β-D-psicofuranosyladenine, reference compound] |  |  |  |  | inhibition at 100 µM [1]: 36.1 ± 4.9%; inhibition at 100 µM [2, 5]: 51.5 ± 7.4%
O=c1[nH]c(=O)c2ncn([C@@H]3O[C@H](CO)[C@@H](O)[C@H]3O)c2[nH]1 [Compound 81, xanthosine, reference compound] |  |  | 9.1 ± 2.4 |  | inhibition at 100 µM [2, 5]: 8.5 ± 2.5%
O=c1ccn([C@@H]2O[C@H](CO)[C@@H](O)[C@H]2O)c(=O)[nH]1 [Compound 82, uridine, reference compound] |  |  | 14.3 ± 6.9 | 2.8 ± 5.2 | 
Cc1cn([C@H]2C[C@H](O)[C@@H](CO)O2)c(=O)[nH]c1=O [Compound 83, thymidine, reference compound] |  |  | 23.4 ± 2.5 | 1.7 ± 3.4 | 
Nc1ccn([C@@H]2O[C@H](CO)[C@@H](O)[C@H]2O)c(=O)n1 [Compound 84, cytidine, reference compound] |  |  |  | 16 ± 1.5 | inhibition at 100 µM [1]: 18 ± 1.2%
OC[C@H]1O[C@@H](n2cnc3c(O)ncnc32)[C@H](O)[C@@H]1O [Compound 85, inosine, reference compound] | 16.7 | 50 |  |  | 
Nc1nc2c(ncn2[C@@H]2O[C@H](CO)[C@@H](O)[C@H]2O)c(=O)[nH]1 [Compound 86, guanosine, reference compound] | 27.8 | 8.5 |  |  | 

SMILES | Ki [1, 3] [µM] | Ki [2, 4] [µM] | inhibition at 100 µM ([1]; at 100 μM) [%] | inhibition at 100 µM [2, 6] [%] | also measured
Nc1nc(SCc2ccc([N+](=O)[O-])cc2)c2ncn([C@@H]3O[C@H](CO)[C@@H](O)[C@H]3O)c2n1 [Compound 87, (4-nitrobenzyl)-6-thioguanosine, reference compound] | 15 | 48.5 |  |  | 
Nc1nc2c(ncn2[C@@H]2O[C@H](CO)[C@@H](O)[C@H]2O)c(=S)[nH]1 [Compound 88, 6-thioguanosine, reference compound] |  |  | 44.2 ± 2.3 |  | inhibition at 100 µM [2, 5]: 27.7 ± 5.8%
OC[C@H]1O[C@@H](n2cnc3c(=S)[nH]cnc32)[C@H](O)[C@@H]1O [Compound 89, 6-thiopurine riboside, reference compound] |  |  | 61.2 ± 3.9 | 33.6 ± 3.3 | 
CNC(=O)[C@H]1O[C@@H](n2cnc3c(=O)[nH]cnc32)[C@H](O)[C@@H]1O [Compound 90, inosine-5'-N-methyluronamide] |  |  | 0 | 6.2 ± 4.2 | 
CCNC(=O)[C@H]1O[C@@H](n2cnc3c(=O)[nH]cnc32)[C@H](O)[C@@H]1O [Compound 91, inosine-5'-N-ethyluronamide] |  |  |  | 30.6 ± 2.3 | IC50 [1]: > 100 µM; inhibition at 100 µM [1]: 43.7 ± 10.3%; IC50 [2]: > 100 µM
Cn1cnc2[nH]c(=O)[nH]c(=O)c21 [Compound 101, 7-methylX, reference compound] |  |  | 52.3 ± 7.9 | 37.7 ± 4.9 | 
Cn1c(=O)[nH]c2c(ncn2C)c1=O [Compound 105, 1,9-dimethylX, reference compound] |  |  | 29.4 ± 1.6 | 6 ± 6.3 | 
Cn1cnc2c(=O)[nH]c(=O)n(C)c21 [Compound 107, 3,9-dimethylX, reference compound] |  |  | 19.7 ± 7.9 | 4.2 ± 5.9 | 
CCCCCCn1c(=O)c2[nH]cnc2n(CCCCCC)c1=O [Compound 110, 1,3-dihexylX, reference compound] | 1.26 |  |  |  | inhibition at 10 µM [2, 6]: 14.3 ± 3%
CCCn1c(=S)[nH]c(=O)c2[nH]cnc21 [Compound 114, 2-thio-3-propylX, reference compound] | 26.1 | 32.5 |  |  | 
Cn1c(=O)c2c(ncn2[C@@H]2O[C@H](CO)[C@@H](O)[C@H]2O)n(C)c1=O [Compound 117, theophylline-7-riboside, reference compound] |  |  |  |  | Ki [1, 7]: 27 µM; inhibition at 100 µM [2, 8]: 2%
CCCn1c(=O)c2c(ncn2[C@@H]2O[C@H](CO)[C@@H](O)[C@H]2O)n(CCC)c1=O [Compound 118, 1,3-di-n-propylxanthine-7-β-D-ribofuranoside, reference compound] | 15.9 |  |  | 32 ± 1.1 | inhibition at 100 µM [2, 8]: 32%
CCCCn1c(=O)c2c(ncn2[C@@H]2O[C@H](CO)[C@@H](O)[C@H]2O)n(CCCC)c1=O [Compound 119, 1,3-di-n-butylxanthine-7-β-D-ribofuranoside] | 4.19 | 19.5 |  |  | 
CCCCn1c(=O)n(Cc2ccccc2)c(=O)c2c1ncn2[C@@H]1O[C@H](CO)[C@@H](O)[C@H]1O [Compound 120, 1-benzyl-3-butylxanthine-7-β-D-ribofuranoside] |  | 3.8 |  |  | potency increase at A1 and A2a receptors vs 1,3-di-n-butylxanthine-7-β-D-ribofuranoside [1]: 2-4 fold; Ki [1, 7]: 2.19 µM; Ki [2, 9]: 8.67 µM
CCCCn1c(=O)c2c(ncn2[C@@H]2O[C@H](CO)[C@@H](O)[C@H]2O)n(Cc2ccccc2)c1=O [Compound 121, 3-benzyl-1-butylxanthine-7-β-D-ribofuranoside] |  | 4.51 |  |  | potency increase at A1 and A2a receptors vs 1,3-di-n-butylxanthine-7-β-D-ribofuranoside ([1]; A1 and A2a receptors): 2-4 fold; Ki [1, 7]: 1.72 ± 0.03 µM; Ki [2, 9]: 4.51 µM
CCCCn1c(=O)c2c(ncn2[C@@H]2O[C@H](C(=O)OC)[C@@H](O)[C@H]2O)n(CCCC)c1=O [Compound 122, methyl 1,3-di-n-butylxanthine-7-β-D-ribofuronate] |  |  |  |  | Ki [1, 7]: 3.72 µM; inhibition at 3 µM [2, 8]: 0%
CCCCn1c(=O)c2c(ncn2[C@@H]2O[C@H](C(N)=O)[C@@H](O)[C@H]2O)n(CCCC)c1=O [Compound 123, 1,3-di-n-butylxanthine-7-β-D-ribofuronamide] | 2.94 | 59.2 |  |  | 
CCCCn1c(=O)c2c(ncn2[C@@H]2O[C@H](C(=O)NCC)[C@@H](O)[C@H]2O)n(CCCC)c1=O [Compound 126, N-ethyl 1,3-di-n-butylxanthine-7-β-D-ribofuronamide] | 7.5 | 17 |  |  | 
CCCn1c(=O)[nH]c2nc(C3CCCC3)[nH]c2c1=O [Compound 129, 8-cyclopentyl-1-propylX, reference compound] | 0.226 ± 0.037 | 48.7 |  |  | 
Cn1c(=O)c2[nH]c(Cl)nc2n(C)c1=O [Compound 132, 8-chloroT, reference compound] |  |  | 30.2 ± 6.7 | 24.7 ± 3.9 | 
